From patent US20150337315A1, “COMPOSITIONS AND METHODS TARGETING SIGNALING BY THE G PROTEIN BETA-GAMMA SUBUNIT FOR THE TREATMENT OF ASTHMA” (priority 2014, published 2015)
“Also recorded” adds a separate entry of the source.

How the values were obtained:
[1] = tested on: PDE activity in asthmatic HASM cells; assay: cAMP PDE activity assay in lysates of treated or siRNA-transfected asthmatic HASM cells; format: cell-based, human; conditions: for effect on heightened basal PDE activity: × 2 hr
Procedure: Primary cultures of HASM cells derived from bronchial smooth muscle freshly isolated post-mortem from normal non-asthmatic (n=3) and asthmatic (n=4) donor lungs were purchased at passage 2-3 from Lonza Walkersville, Inc. Other than data regarding age, race, and gender of the donors provided in Table 1, limited information was available with respect to clinical severity of asthma, treatment history, or cause of death, with exception to asthma donor #1. All the experiments were conducted at passage 5-6, after growing the cells in Lonza's serum-containing SmBM medium supplemented with the BulletKit medium that contains insulin, human FGF, gentamycin/amphotericin B. The cells were maintained throughout in a humidified incubator containing 5% CO2 in air at 37° C. and, after attaining ˜90% confluence, cells were growth arrested for 24 hr in serum-free Ham's F12 medium. Thereafter, the cells were examined for constitutive and induced changes in PDE activity, levels of free Gβ, c-Src and ERK1/2 phosphorylation, and PDE4D protein expression, all in the absence and presence of different pretreatment conditions, as described.
Levels of total cAMP PDE activity were determined in normal and asthmatic HASM cells at baseline and at different times ranging from 0.25-24 hr following administration of a maximally effective concentration of either: 1) a cell permeable anti-Gβγ blocking peptide (1 μM; AnaSpec; Premont, Calif.), comprised of a membrane permeable sequence (MPS; 15 amino acids) conjugated to the Gβγ-sequestering C-terminal domain (28 amino acids) of phosducin-like protein [28]; 2) the inert MPS peptide alone (1 μM) serving as a negative-control; or 3) 1 μM of gallein [29], a recently described small molecule inhibitor of Gβγ signaling (Acros Organics). PDE activity was also assayed in normal and asthmatic HASM cells following dose-dependent administration of anti-Gβγ blocking peptide (0.01-10 μM), and following treatment with various small molecule inhibitors, as described. The PDE activity assay was performed in the HASM cell lysates using a colorimetric, non-radioactive enzymatic assay (Enzo Life Sciences; Plymouth Meeting, Pa.) as per the manufacturer's protocol, with some modification of our previously described approach. Specifically, to maximize the sensitivity and yield of the measurement enzyme activity, we used materials including a cell lysis buffer completely free of phosphate, composed of 50 mM Tris, pH 7.5, 0.1 mM EDTA, 0.1 mM EGTA, 1 mM DTT and 0.2% NP-40. The measured levels of PDE activity were standardized to protein content in the cell extracts. Finally, PDE activity was also assayed in normal and asthmatic HASM cells following transfection with siRNA preparations targeted at suppressing specific signaling molecules, as described below.
Targeted protein suppression using siRNA preparations was examined in normal and asthmatic HASM cells that were initially seeded into 6-well plates and, at ˜40% confluency, the medium was replaced with the reduced serum-containing medium, Opti-MEM (Invitrogen). Cells were then transfected twice during a 24-hr interval with pools of siRNA preparations, each pool comprised of three siRNA duplexes targeted against either human Rap1GAP (Ambion; ID: s11785, s11786, s11787), RGS14, (Ambion; ID: 18059, 18147, 135857), or the PKAα catalytic subunit (Santa Cruz Biotechnology; Pool ID: sc-36240), as well as a non-targeted (scrambled) siRNA duplex serving as a negative control. As previously described [16.17.31], the transfections were carried out using Oligofectamine (Invitrogen) as the transfection agent, and the pools of siRNAs were applied to each well at a final concentration of 100 nM for each siRNA preparation.

[2] = tested on: phosphorylated c-Src (p-Src); assay: Immunoblot of phosphorylated c-Src (Tyr416) in asthmatic HASM cells; format: cell-based, human
Procedure: (§1) Levels of total and phosphorylated c-Src at residue Tyr416 and ERK1/2 proteins, as well as Gβ protein, were detected by Western blot analysis of lysates isolated from normal and asthmatic HASM cells before and at various times after treatment either with 1 μM of anti-Gβγ blocking peptide or gallein, or the c-Src family tyrosine kinase-selective inhibitor, SU6656 (10 μM), or exposure to the pro-asthmatic Th2 cytokine, IL-13 (50 ng/ml), as described. Following protein extraction and addition of gel loading buffer, the cellular extracts were loaded on a 10% SDS-PAGE gel for immunoblotting after transfer to a PVDF membrane. The membranes were then incubated overnight with monoclonal mouse anti-human primary antibodies directed against c-Src, phospho-c-Src^Tyr416, ERK1/2 and phospho-ERK1/2 (Millipore; Billerica, Mass.), and a rabbit anti-human polyclonal antibody directed against the Gβ subunit (Millipore; Billerica, Mass.). Protein levels were detected by ECL after a 1-hr incubation with a 1:2,000 dilution of HRP-conjugated secondary antibody, followed by exposure to autoradiography film. The protein band intensities were quantified by densitometry.

[3] = tested on: phosphorylated ERK1/2 (p-ERK1/2); assay: Immunoblot of phosphorylated ERK1/2 in asthmatic HASM cells; format: cell-based, human; conditions: 1 μM × 30 min
Procedure: as §1

[4] = tested on: co-localization of p-Src with immunoprecipitated Gβ; assay: Co-IP of p-Src with immunoprecipitated Gβ in IL-13-treated normal HASM cells; format: cell-based, human; conditions: IL-13 × 60 min
Procedure: as §1, with “The membranes were then incubated overnight with monoclonal mouse anti-human primary antibodies directed against c-Src, phospho-c-Src^Tyr416, ERK1/2 and phospho-ERK1/2 (Millipore; Billerica, Mass.), and a rabbit anti-human polyclonal antibody directed against the Gβ subunit (Millipore; Billerica, Mass.).” left out
(§2) Normal and asthmatic HASM cells were prepared for co-immunoprecipitation (Co-IP) studies, performed as previously described, under native conditions in order to preserve protein-protein associations. […] The precipitated immunocomplexes were subsequently analyzed by immunoblotting using either anti-Gβ, anti-phospho-c-Src^Tyr416, anti-ERK1/2, or anti-PDE4D rabbit polyclonal antibody, or anti-Rap1GAP rabbit monoclonal IgG antibody (Millipore; Billerica, Mass.).

[5] = tested on: co-localization of ERK1/2 with PDE4D; assay: Co-IP of PDE4D with immunoprecipitated ERK1/2 in asthmatic HASM cells; format: cell-based, human; conditions: within 30 min
Procedure: Normal and asthmatic HASM cells were prepared for co-immunoprecipitation (Co-IP) studies, performed as previously described, under native conditions in order to preserve protein-protein associations. After indicated treatments, cells were harvested and then exposed to lysis buffer. 1.5 mg of Protein G Dynabeads (Invitrogen; Carlsbad, Calif.) were incubated with 10 μg of anti-Gβ rabbit IgG (Millipore) or anti-Gα (pan) rabbit polyclonal antibody (Millipore; Billerica, Mass.) and incubated for 10 min at room temperature with rotation. Following several washes, the bound bead/antibody complex was added to sample, mixed by pipetting, and incubated for 2 hr at 4° C. with rotation. The captured bead/Protein G/antigen complex was then washed several times and eluted at pH 3.0 with rotation at room temperature. The precipitated immunocomplexes were subsequently analyzed by immunoblotting using either anti-Gβ, anti-phospho-c-Src^Tyr416, anti-ERK1/2, or anti-PDE4D rabbit polyclonal antibody, or anti-Rap1GAP rabbit monoclonal IgG antibody (Millipore; Billerica, Mass.).

[6] = tested on: co-localization of Gβ with immunoprecipitated Gα; assay: Western blot / Co-IP of free Gβ and Gα-associated Gβ in normal HASM cells; format: cell-based, human; conditions: 1 μM, 30 min
Procedure: as §1, with “The membranes were then incubated overnight with monoclonal mouse anti-human primary antibodies directed against c-Src, phospho-c-Src^Tyr416, ERK1/2 and phospho-ERK1/2 (Millipore; Billerica, Mass.), and a rabbit anti-human polyclonal antibody directed against the Gβ subunit (Millipore; Billerica, Mass.).” left out
as §2

allergic rabbits = conditions: previous study (18); cited from earlier work
[7] = tested on: co-localization of Gβ with immunoprecipitated Gα; assay: Western blot / Co-IP of free Gβ and Gα-associated Gβ in asthmatic HASM cells; format: cell-based, human; conditions: 1 μM, 30 min
Procedure: as §1, with “The membranes were then incubated overnight with monoclonal mouse anti-human primary antibodies directed against c-Src, phospho-c-Src^Tyr416, ERK1/2 and phospho-ERK1/2 (Millipore; Billerica, Mass.), and a rabbit anti-human polyclonal antibody directed against the Gβ subunit (Millipore; Billerica, Mass.).” left out
as §2

asthmatic individuals = conditions: cited from earlier work
[8] = tested on: PDE activity detected in cultured asthmatic HASM cells; conditions: recent report [27]; cited from earlier work
[9] = tested on: PDE activity evoked in cultured normal HASM cells; conditions: sensitized under various proasthmatic conditions; [16-18]; cited from earlier work
[10] = tested on: isolated rabbit ASM tissues; conditions: sensitized under various proasthmatic conditions; [16-18]; cited from earlier work
free Gβ protein levels = assay: Immunoblot of free Gβ protein in IL-13-treated normal HASM cells; format: cell-based, human; conditions: IL-13 50 ng/ml, 50 μg/ml printed
Procedure: as §1

Molecule: CN(C)S(=O)(=O)c1ccc2c(c1)/C(=C/c1cc3c([nH]1)CCCC3)C(=O)N2 [SU6656]
- effect on heightened basal PDE activity ([1]; 10 μM): suppressed to near normal levels; also recorded: acutely reversed to near normal levels
- effect on constitutively increased p-Src levels ([2]; SU6656 10 μM): suppressive effect

Molecule: O=C1OC2(c3ccccc31)c1ccc(O)c(O)c1Oc1c2ccc(O)c1O [gallein]
- time at which PDE activity is suppressed to normal levels ([1]; 1 μM): 0.25 h
- effect on constitutively increased PDE activity in asthmatic HASM cells ([1]; 1 μM (maximally effective concentration), acute effect): similarly acutely suppressed
- duration of suppression of PDE activity ([1]; 1 μM, followed up to 24 hr): transient in nature
- effect on constitutively increased p-ERK1/2 levels [3]: acutely suppressed
- effect of pretreatment on IL-13-induced co-localization of p-Src with immunoprecipitated Gβ [4]: abrogated
- effect on heightened co-localization of ERK1/2 with PDE4D [5]: acutely reversed
- effect on Gβ distribution [6]: neither inhibitor had an effect
- effect of pretreatment on in vivo AHR elicited by allergen challenge (allergic rabbits): only suppressed AHR
- effect of pretreatment on pulmonary inflammation elicited by allergen challenge (allergic rabbits): no appreciable inhibitory effect
- effect on Gβ distribution (increased free Gβ, reduced Gα-associated Gβ) [7]: acutely reversed
- effect on constitutively increased p-Src levels ([2]; 1 μM × 30 min): acutely suppressed

Molecule: O=C(Nc1c(Cl)cncc1Cl)c1ccc(OC(F)F)c(OCC2CC2)c1 [roflumilast]
- effect on airway hyperresponsiveness following allergen challenge (asthmatic individuals; [19,21]): decreases airway hyperresponsiveness
- effect on lung function (asthmatic individuals; [20]): improves lung function
- effect on increased PDE activity in cultured asthmatic HASM cells [8]: inhibited

Molecule: O=c1cc(N2CCOCC2)oc2c(-c3ccccc3)cccc12 [LY294002]
- effect on heightened basal PDE activity ([1]; 10 μM): no significant effect

Molecule: COc1ccc(C2CNC(=O)C2)cc1OC1CCCC1 (centres unmarked) [rolipram]
- effect on heightened constitutive PDE activity ([1]; 10 μM × 1 hr, data not shown): completely abrogated
- effect on increased PDE activity evoked in cultured normal HASM cells [9]: inhibits
- effect on increased PDE activity evoked in isolated rabbit ASM tissues [10]: inhibits

Molecule: O=S(=O)(NCCNC/C=C/c1ccc(Br)cc1)c1cccc2cnccc12 [H89]
- effect on heightened basal PDE activity ([1]; 10 μM): no significant effect

Molecule: IL-13: pro-asthmatic Th2 cytokine used as stimulus
- effect on co-localization of p-Src with immunoprecipitated Gβ ([4]; relative to unstimulated cells): increased co-localization; also recorded: enhanced co-localization
- time of peak of evoked increase in free Gβ levels (free Gβ protein levels): 60 to 90 min

Molecule: N#CC(=C(/N)Sc1ccccc1N)/C(C#N)=C(\N)Sc1ccccc1N [U0126]
- effect on heightened basal PDE activity ([1]; 5 μM): acutely reversed to near normal levels; also recorded: acutely suppressed the elevated PDE activity in asthmatic HASM cells to near normal levels

Molecule: COc1ccc([C@]2(C#N)CC[C@@H](C(=O)O)CC2)cc1OC1CCCC1 [cilomilast]
- effect on increased PDE activity in cultured asthmatic HASM cells [8]: inhibited

Molecule: Oc1ccc(-c2nc(-c3ccncc3)c(-c3ccc(F)cc3)[nH]2)cc1 [SB202190]
- effect on heightened basal PDE activity ([1]; 10 μM): no significant effect
